Laboratory results as given in patent US12091385B2, “Pyridinylcyanoguanidine derivative and use thereof” (Rushi Biotech (Hangzhou) Co., Ltd, priority 2021, dated 2024).

Experiments:
Assay type in all cases: cell-based
[1] = system: Human colon cancer cell HCT-116; test: CCK-8 cell proliferation assay, HCT-116; settings: HCT116 cells, 72 hrs with drug, CCK-8, OD 450 nm
Experimental: (§1) The effect of samples on the proliferation of human tumor cells in vitro was determined by CCK-8 cell proliferation assay.
(§2) The cells were assayed through a method including the following steps: • 1) The cells were digested, counted, and prepared into a cell suspension in a corresponding culture medium (Table 1) (5×10^4 cells/ml for CFPAC-1 and RPMI 8226, and 3.5×10^4 cells/ml for rest cells). The cell suspension was added to each well of a 96-well plate in 100 μl/well. • 2) Then the 96-well plate was incubated for 24 hrs in an incubator at 37° C. and 5% CO2. • 3) The drug was diluted with the culture medium to the required working concentration. 100 μl of the corresponding drug containing medium was added to each well.

[2] = system: Human lung adenocarcinoma cell A549; test: CCK-8 cell proliferation assay, A549; settings: A549 cells, 72 hrs with drug, CCK-8, OD 450 nm
Experimental: as §1, §2

[3] = system: Human multiple myeloma cell RPMI 8226; test: CCK-8 cell proliferation assay, RPMI 8226; settings: RPMI8226 cells, 72 hrs with drug, CCK-8, OD 450 nm
Experimental: as §1, §2

[4] = system: Human esophageal cancer cell TE-1; test: CCK-8 cell proliferation assay, TE-1; settings: TE-1 cells, 72 hrs with drug, CCK-8, OD 450 nm
Experimental: as §1, §2

[5] = system: Human pancreatic cancer cell CFPAC-1; test: CCK-8 cell proliferation assay, CFPAC-1; settings: CFPAC-1 cells, 72 hrs with drug, CCK-8, OD 450 nm
Experimental: as §1, §2

[6] = system: Human hepatoma cell HepG2; test: CCK-8 cell proliferation assay, HepG2; settings: HepG2 cells, 72 hrs with drug, CCK-8, OD 450 nm
Experimental: as §1, §2

[7] = system: Human gastric cancer cell MKN45; test: CCK-8 cell proliferation assay, MKN45; settings: MKN-45 cells, 72 hrs with drug, CCK-8, OD 450 nm
Experimental: as §1, §2

N#CN=C(NCCCCCN1CCN(C(=O)c2ccco2)CC1)Nc1ccnc(F)c1 [BSS-PC013]
IC50 [1]: 101 nM | IC50 [2]: 48 nM | IC50 [3]: 28 nM | IC50 [4]: 57 nM | IC50 [5]: 38 nM | IC50 [6]: 93 nM | IC50 [7]: 72 nM

N#CN=C(NCCCCCCC1CCN(C(=O)c2ccco2)C1)Nc1cc(Cl)nc(Cl)c1 (stereo not drawn) [BSS-PC080]
IC50 [1]: 75 nM | IC50 [2]: 66 nM | IC50 [3]: 42 nM | IC50 [4]: 62 nM | IC50 [5]: 51 nM | IC50 [6]: 83 nM | IC50 [7]: 64 nM

N#CN=C(NCCCCCC1CCN(C(=O)c2ccco2)C1)Nc1cccnc1 (stereo not drawn) [BSS-PC051]
IC50 [1]: 39 nM | IC50 [2]: 51 nM | IC50 [3]: 27 nM | IC50 [4]: 40 nM | IC50 [5]: 33 nM | IC50 [6]: 42 nM | IC50 [7]: 31 nM

COc1cccc(OC)c1C(=O)N1CCC(CCCCCNC(=NC#N)Nc2ccncc2)C1 (stereo not drawn) [BSS-PC031, 2-cyano-1-(5-(1-(2,6-dimethoxybenzoyl)pyrrolidine-3-yl)pentyl)-3-(4-pyridinyl)guanidine]
IC50 [1]: 49 nM | IC50 [2]: 42 nM | IC50 [3]: 23 nM | IC50 [4]: 94 nM | IC50 [5]: 27 nM | IC50 [6]: 109 nM | IC50 [7]: 37 nM

COc1cccc(OC)c1C(=O)N1CCC(CCCCCNC(=NC#N)Nc2cccnc2)C1 (stereo not drawn) [BSS-PC052, 2-cyano-1-(5-(1-(2,6-dimethoxybenzoyl)pyrrolidine-3-yl)pentyl)-3-(3-pyridinyl)guanidine]
IC50 [1]: 57 nM | IC50 [2]: 29 nM | IC50 [3]: 24 nM | IC50 [4]: 39 nM | IC50 [5]: 29 nM | IC50 [6]: 44 nM | IC50 [7]: 40 nM

N#CN=C(NCCCCCC1CCN(C(=O)c2cccs2)C1)Nc1ccncc1 (stereo not drawn) [BSS-PC029, 2-cyano-1-(5-(1-(2-thienylformyl)pyrrolidine-3-yl)pentyl)-3-(4-pyridinyl)guanidine]
IC50 [1]: 52 nM | IC50 [2]: 35 nM | IC50 [3]: 19 nM | IC50 [4]: 66 nM | IC50 [5]: 34 nM | IC50 [6]: 64 nM | IC50 [7]: 36 nM

N#CN=C(NCCCCCCC1CCN(C(=O)c2ccccc2)C1)Nc1cccnc1 (stereo not drawn) [BSS-PC059, 2-cyano-1-(6-((1-benzoyl)pyrrolidine-3-yl)hexyl)-3-(3-pyridinyl)guanidine]
IC50 [1]: 86 nM | IC50 [2]: 43 nM | IC50 [3]: 35 nM | IC50 [4]: 99 nM | IC50 [5]: 46 nM | IC50 [6]: 92 nM | IC50 [7]: 47 nM

N#CN=C(NCCCCCCC1CCN(C(=O)c2cccs2)C1)Nc1ccncc1 (stereo not drawn) [BSS-PC053, 2-cyano-1-(6-(1-(2-thienylformyl)pyrrolidine-3-yl)hexyl)-3-(4-pyridinyl)guanidine]
IC50 [1]: 43 nM | IC50 [2]: 25 nM | IC50 [3]: 22 nM | IC50 [4]: 30 nM | IC50 [5]: 22 nM | IC50 [6]: 31 nM | IC50 [7]: 34 nM

COc1cccc(OC)c1C(=O)N1CCN(CCCCCNC(=NC#N)Nc2cccnc2)CC1 [BSS-PC027, 2-cyano-1-(5-(1-(2,6-dimethoxybenzoyl)piperazine-4-yl)pentyl)-3-(3-pyridinyl)guanidine]
IC50 [1]: 81 nM | IC50 [2]: 63 nM | IC50 [3]: 40 nM | IC50 [4]: 92 nM | IC50 [5]: 49 nM | IC50 [6]: 69 nM | IC50 [7]: 47 nM

N#CN=C(NCCCCCCC1CCN(C(=O)c2cccs2)C1)Nc1cccnc1 (stereo not drawn) [BSS-PC060, 2-cyano-1-(6-(1-(2-thienylformyl)pyrrolidine-3-yl)hexyl)-3-(3-pyridinyl)guanidine]
IC50 [1]: 97 nM | IC50 [2]: 31 nM | IC50 [3]: 38 nM | IC50 [4]: 85 nM | IC50 [5]: 31 nM | IC50 [6]: 101 nM | IC50 [7]: 78 nM

N#CN=C(NCCCCCC1CCN(C(=O)c2cc3ccccc3o2)C1)Nc1ccncc1 (stereo not drawn) [BSS-PC047, 2-cyano-1-(5-(1-(2-benzofurylformyl)pyrrolidine-3-yl)pentyl)-3-(4-pyridinyl)guanidine]
IC50 [1]: 63 nM | IC50 [2]: 66 nM | IC50 [3]: 42 nM | IC50 [4]: 68 nM | IC50 [5]: 50 nM | IC50 [6]: 79 nM | IC50 [7]: 55 nM

N#CN=C(NCCCCCN1CCN(C(=O)C2CCCN2)CC1)Nc1ccncc1 (stereo not drawn) [BSS-PC010, 2-cyano-1-(5-(1-(2-pyrrolidinylformyl)piperazine-4-yl)pentyl)-3-(4-pyridinyl)guanidine]
IC50 [1]: 69 nM | IC50 [2]: 67 nM | IC50 [3]: 39 nM | IC50 [4]: 86 nM | IC50 [5]: 33 nM | IC50 [6]: 61 nM | IC50 [7]: 53 nM

COc1cccc(OC)c1C(=O)N1CCC(CCCCCCNC(=NC#N)Nc2ccncc2)C1 (stereo not drawn) [BSS-PC055, 2-cyano-1-(6-(1-(2,6-dimethoxybenzoyl)pyrrolidine-3-yl)hexyl)-3-(4-pyridinyl)guanidine]
IC50 [1]: 82 nM | IC50 [2]: 50 nM | IC50 [3]: 41 nM | IC50 [4]: 90 nM | IC50 [5]: 47 nM | IC50 [6]: 88 nM | IC50 [7]: 61 nM

N#CN=C(NCCCCCC1CCN(C(=O)c2sccc2F)C1)Nc1ccncc1 (stereo not drawn) [BSS-PC050, 2-cyano-1-(5-(1-(3-fluoro-2-thienylformyl)pyrrolidine-3-yl)pentyl)-3-(4-pyridinyl)guanidine]
IC50 [1]: 87 nM | IC50 [2]: 39 nM | IC50 [3]: 32 nM | IC50 [4]: 52 nM | IC50 [5]: 41 nM | IC50 [6]: 68 nM | IC50 [7]: 33 nM

N#CN=C(NCCCCCN1CCN(C(=O)c2ccco2)CC1)Nc1ccncc1 [BSS-PC007, 2-cyano-1-(5-((1-furoyl)piperazine-4-yl)pentyl)-3-(4-pyridinyl)guanidine]
IC50 [1]: 55 nM | IC50 [2]: 36 nM | IC50 [3]: 29 nM | IC50 [4]: 96 nM | IC50 [5]: 27 nM | IC50 [6]: 91 nM | IC50 [7]: 72 nM

N#CN=C(NCCCCCCC1CCN(C(=O)c2ccc[nH]2)C1)Nc1ccncc1 (stereo not drawn) [BSS-PC056, 2-cyano-1-(6-(1-(2-pyrrolylformyl)pyrrolidine-3-yl)hexyl)-3-(4-pyridinyl)guanidine]
IC50 [1]: 73 nM | IC50 [2]: 47 nM | IC50 [3]: 33 nM | IC50 [4]: 42 nM | IC50 [5]: 44 nM | IC50 [6]: 39 nM | IC50 [7]: 39 nM

COc1cccc(OC)c1C(=O)N1CCN(CCCCCNC(=NC#N)Nc2ccncc2)CC1 [BSS-PC006, 2-cyano-1-(5-(1-(2,6-dimethoxybenzoyl)piperazine-4-yl)pentyl)-3-(4-pyridinyl)guanidine]
IC50 [1]: 76 nM | IC50 [2]: 73 nM | IC50 [3]: 34 nM | IC50 [4]: 125 nM | IC50 [5]: 55 nM | IC50 [6]: 92 nM | IC50 [7]: 89 nM

N#CN=C(NCCCCCC1CCN(C(=O)C2Cc3ccccc3O2)C1)Nc1ccncc1 (stereo not drawn) [BSS-PC046, 2-cyano-1-(5-(1-(2-benzotetrahydrofurylfuryl)pyrrolidine-3-yl)pentyl)-3-(4-pyridinyl)guanidine]
IC50 [1]: 74 nM | IC50 [2]: 71 nM | IC50 [3]: 45 nM | IC50 [4]: 83 nM | IC50 [5]: 42 nM | IC50 [6]: 85 nM | IC50 [7]: 61 nM

N#CN=C(NCCCCCN1CCN(C(=O)C2CCCS2)CC1)Nc1ccncc1 (stereo not drawn) [BSS-PC009, 2-cyano-1-(5-(1-(2-tetrahydrothienylformyl)piperazine-4-yl)pentyl)-3-(4-pyridinyl)guanidine]
IC50 [1]: 92 nM | IC50 [2]: 71 nM | IC50 [3]: 43 nM | IC50 [4]: 81 nM | IC50 [5]: 58 nM | IC50 [6]: 85 nM | IC50 [7]: 68 nM

N#CN=C(NCCCCCN1CCN(C(=O)c2cccs2)CC1)Nc1cccnc1 [BSS-PC018, 2-cyano-1-(5-(1-(2-thienylformyl)piperazine-4-yl)pentyl)-3-(3-pyridinyl)guanidine]
IC50 [1]: 95 nM | IC50 [2]: 74 nM | IC50 [3]: 28 nM | IC50 [4]: 85 nM | IC50 [5]: 35 nM | IC50 [6]: 77 nM | IC50 [7]: 60 nM

N#CN=C(NCCCCCCC1CCN(C(=O)c2ccc[nH]2)C1)Nc1cccnc1 (stereo not drawn) [BSS-PC061, 2-cyano-1-(6-(1-(2-pyrrolylformyl)pyrrolidine-3-yl)hexyl)-3-(3-pyridinyl)guanidine]
IC50 [1]: 87 nM | IC50 [2]: 57 nM | IC50 [3]: 33 nM | IC50 [4]: 103 nM | IC50 [5]: 45 nM | IC50 [6]: 122 nM | IC50 [7]: 65 nM

N#CN=C(NCCCCCN1CCN(C(=O)c2ccccc2)CC1)Nc1ccncc1 [BSS-PC003]
IC50 [1]: 41 nM | IC50 [2]: 29 nM | IC50 [3]: 19 nM | IC50 [4]: 46 nM | IC50 [5]: 26 nM | IC50 [6]: 49 nM | IC50 [7]: 50 nM

N#CN=C(NCCCCCC1CCN(C(=O)c2ccccc2)C1)Nc1cccnc1 (stereo not drawn) [BSS-PC044, 2-cyano-1-(5-((1-benzoyl)pyrrolidine-3-yl)pentyl)-3-(3-pyridinyl)guanidine]
IC50 [1]: 40 nM | IC50 [2]: 41 nM | IC50 [3]: 20 nM | IC50 [4]: 34 nM | IC50 [5]: 38 nM | IC50 [6]: 42 nM | IC50 [7]: 53 nM

N#CN=C(NCCCCCC1CCN(C(=O)C2CCCO2)C1)Nc1ccncc1 (stereo not drawn) [BSS-PC036, 2-cyano-1-(5-(1-(2-tetrahydrofuranformyl)pyrrolidine-3-yl)pentyl)-3-(4-pyridinyl)guanidine]
IC50 [1]: 58 nM | IC50 [2]: 28 nM | IC50 [3]: 25 nM | IC50 [4]: 72 nM | IC50 [5]: 39 nM | IC50 [6]: 90 nM | IC50 [7]: 36 nM
